Data taken from patent publication US8247211B2, “Glycopeptide antibiotics” (American Cyanamid Company, priority 2001, dated 2012).
≈ marks a conversion by molar mass, not a printed value.

Legend:
[1] = Anatomic pathology (heart and kidney histopathology) in mice; type: in vivo, CD-1 mice; settings: 20 mg/kg intravenously daily for 9 days, microscopic histopathology on day 10
How it was run: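 Histopathology on H&E-stained, paraffin-embedded sections, subjectively scored (slight, mild, moderate, marked, severe) relative to untreated controls. Dosing: glycopeptide antibiotics 20 mg/kg intravenously once daily ×9 days in 20-day-old CD-1 mice, n=5 per group including vehicle.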

[2] = tested on: Staphylococcus aureus-SMITH (GC 4543); experiment: Acute lethal infection in mice (ED50); type: in vivo; settings: female CD-1 mice, intraperitoneal challenge, intravenous dose 30 min. after infection, 7 day survival ratios
How it was run: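 Bacteria suspended in Trypticase Soy Broth or hog gastric mucin are injected intraperitoneally into female CD-1 mice at a dose killing untreated animals within 24-48 hr. Thirty minutes later, test agent is administered intravenously. Survival at day 7 is scored.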

Escherichia coli [3] = experiment: In vitro antibacterial evaluation: minimum inhibitory concentration (MIC), broth dilution method; type: cell-based
Enterococcus sp. = experiment: as above; type: cell-based
How it was run: (§1)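 Following NCCLS approved standard M7-A2, compounds are serially diluted from 64 to 0.06 μg/mL in Muller-Hinton II […] and inoculated at 5×10^5 CFU/mL; the MIC is the minimum concentration at which growth is inhibited.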

Staphylococcus sp. = experiment: as above; type: cell-based; settings: 18 hours at 35° C.
How it was run: as §1

Escherichia coli [4] = experiment: as above; type: cell-based; remark: listed apart in the source
How it was run: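 Test strains, among them recent clinical isolates carrying methicillin, penicillin and/or vancomycin resistance, were inoculated at 5×10^5 CFU/mL. A broth dilution series spanning 64-0.06 μg/mL in Muller-Hinton II […] (NCCLS M7-A2) defined the MIC as the lowest growth-inhibiting concentration.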

Streptococcus sp. = experiment: as above; type: cell-based; settings: 18 hours at 35° C.
How it was run: as §1

[5] = Enterococcus faecalis (ATCC 29212)
[6] = Enterococcus faecalis (GC 4553)
[7] = Enterococcus faecalis (GC 4554)
[8] = Enterococcus faecalis (GC 6189)
[9] = Staphylococcus aureus (ATCC 29213)
[10] = Staphylococcus aureus (GC 1131)
[11] = Staphylococcus aureus (GC 3051)
[12] = Staphylococcus aureus (GC 3053)
[13] = Staphylococcus aureus (GC 4541)
[14] = Staphylococcus aureus (GC 4542)
[15] = Staphylococcus aureus (GC 4544)
[16] = Staphylococcus aureus (GC 4545)

CC(C)CC(=O)OC1C(OC2C(CO)OC(Oc3ccc(CC4NC(=O)C(C(C)c5ccccc5)NC(=O)CNC(=O)C(CO)NC(=O)C(CC5CNC(=N)N5C5OC(CO)C(O)C(O)C5O)NC(=O)C(CC5CNC(=N)N5)NC4=O)cc3)C(O)C2O)OC(CO)C(O)C1O (stereo not shown) [Example 277b]
Anatomical Pathology (Day 10), Heart [1]: 0
Anatomical Pathology (Day 10), Kidney [1]: +
median effective dose (ED50), Staphylococcus aureus-SMITH (GC 4543) [2]: >8
MIC Escherichia coli (ATCC 25922) (Escherichia coli [3]): >64 µg/mL
MIC Enterococcus avium (GC 4558) (Enterococcus sp.; Enterococcus avium (GC 4558)): >64 µg/mL
MIC Enterococcus faecalis (ATCC 29212) (Enterococcus sp.; [5]): >64 µg/mL
MIC Enterococcus faecalis (GC 4553) (Enterococcus sp.; [6]): >64 µg/mL
MIC Enterococcus faecalis (GC 4554) (Enterococcus sp.; [7]): >64 µg/mL
MIC Enterococcus faecalis (GC 6189) (Enterococcus sp.; [8]): >64 µg/mL
MIC Enterococcus faecium (GC 2243) (Enterococcus sp.; Enterococcus faecium (GC 2243)): >64 µg/mL
MIC Enterococcus faecium (GC 4556) (Enterococcus sp.; Enterococcus faecium (GC 4556)): >64 µg/mL
MIC Enterococcus faecium (GC 4557) (Enterococcus sp.; Enterococcus faecium (GC 4557)): >64 µg/mL
MIC Coagulase Negative Staphylococcus (GC 4547) (Staphylococcus sp.): >64 µg/mL
MIC Coagulase Negative Staphylococcus (GC 4547) (Staphylococcus sp.; broth dilution): >64 µg/mL
MIC Coagulase Negative Staphylococcus (GC 4548) (Staphylococcus sp.): >64 µg/mL
MIC Coagulase Negative Staphylococcus (GC 4548) (Staphylococcus sp.; broth dilution): >64 µg/mL
MIC Coagulase Negative Staphylococcus (GC 4549) (Staphylococcus sp.): >64 µg/mL
MIC Coagulase Negative Staphylococcus (GC 4549) (Staphylococcus sp.; broth dilution): >64 µg/mL
MIC Coagulase Negative Staphylococcus (GC 4551) (Staphylococcus sp.): >64 µg/mL
MIC Coagulase Negative Staphylococcus (GC 4551) (Staphylococcus sp.; broth dilution): >64 µg/mL
MIC Coagulase Negative Staphylococcus (GC 6257) (Staphylococcus sp.): >64 µg/mL
MIC Coagulase Negative Staphylococcus (GC 6257) (Staphylococcus sp.; broth dilution): >64 µg/mL
MIC Staphylococcus aureus (ATCC 29213) (Staphylococcus sp.; [9]): >64 µg/mL
MIC Staphylococcus aureus (ATCC 29213) (Staphylococcus sp.; Staphylococcus aureus (ATCC 29213), broth dilution): >64 µg/mL
MIC Staphylococcus aureus (GC 1131) (Staphylococcus sp.; [10]): >64 µg/mL
MIC Staphylococcus aureus (GC 1131) (Staphylococcus sp.; Staphylococcus aureus (GC 1131), broth dilution): >64 µg/mL
MIC Staphylococcus aureus (GC 3051) (Staphylococcus sp.; [11]): >64 µg/mL
MIC Staphylococcus aureus (GC 3051) (Staphylococcus sp.; Staphylococcus aureus (GC 3051), broth dilution): >64 µg/mL
MIC Staphylococcus aureus (GC 3053) (Staphylococcus sp.; [12]): >64 µg/mL
MIC Staphylococcus aureus (GC 3053) (Staphylococcus sp.; Staphylococcus aureus (GC 3053), broth dilution): >64 µg/mL
MIC Staphylococcus aureus (GC 4541) (Staphylococcus sp.; [13]): >64 µg/mL
MIC Staphylococcus aureus (GC 4541) (Staphylococcus sp.; Staphylococcus aureus (GC 4541), broth dilution): >64 µg/mL
MIC Staphylococcus aureus (GC 4542) (Staphylococcus sp.; [14]): >64 µg/mL
MIC Staphylococcus aureus (GC 4542) (Staphylococcus sp.; Staphylococcus aureus (GC 4542), broth dilution): >64 µg/mL
MIC Staphylococcus aureus (GC 4544) (Staphylococcus sp.; [15]): >64 µg/mL
MIC Staphylococcus aureus (GC 4544) (Staphylococcus sp.; Staphylococcus aureus (GC 4544), broth dilution): >64 µg/mL
MIC Staphylococcus aureus (GC 4545) (Staphylococcus sp.; [16]): >64 µg/mL
MIC Staphylococcus aureus (GC 4545) (Staphylococcus sp.; Staphylococcus aureus (GC 4545), broth dilution): >64 µg/mL
MIC Staphylococcus aureus-SMITH (GC 4543) (Staphylococcus sp.): >64 µg/mL
MIC Staphylococcus aureus-SMITH (GC 4543) (Staphylococcus sp.; broth dilution): >64 µg/mL
MIC Staphylococcus haemolyticus (GC 4546) (Staphylococcus sp.): >64 µg/mL
MIC Staphylococcus haemolyticus (GC 4546) (Staphylococcus sp.; broth dilution): >64 µg/mL
MIC Escherichia coli (GC 4559) (Escherichia coli [4]): >64 µg/mL
MIC Escherichia coli (GC 4560) (Escherichia coli [4]): 32 µg/mL (≈ 23.7 µM)

β-O-[(N-Methyl-2-methylpropylamino)carbonyl]-cyclo[glycyl-β-methylphenylalanyl-O-(4-O-hexopyranosylhexopyranosyl)tyrosyl-3-(2-iminoimidazolidin-4-yl)seryl-3-(3-hexopyranosyl-2-iminoimidazolidin-4-yl)serylseryl] [Example 255a]
MIC Escherichia coli (ATCC 25922) (Escherichia coli [3]): >0.5 µg/mL
MIC Enterococcus avium (GC 4558) (Enterococcus sp.; Enterococcus avium (GC 4558)): >0.5 µg/mL
MIC Enterococcus faecalis (ATCC 29212) (Enterococcus sp.; [5]): >0.5 µg/mL
MIC Enterococcus faecalis (GC 2242) (Enterococcus sp.; Enterococcus faecalis (GC 2242), 18 hours at 35° C.): >0.5 µg/mL
MIC Enterococcus faecalis (GC 2691) (Enterococcus sp.; Enterococcus faecalis (GC 2691), 18 hours at 35° C.): >0.5 µg/mL
MIC Enterococcus faecalis (GC 3059) (Enterococcus sp.; Enterococcus faecalis (GC 3059), 18 hours at 35° C.): >0.5 µg/mL
MIC Enterococcus faecalis (GC 4552) (Enterococcus sp.; Enterococcus faecalis (GC 4552), 18 hours at 35° C.): >0.5 µg/mL
MIC Enterococcus faecalis (GC 4553) (Enterococcus sp.; [6]): >0.5 µg/mL
MIC Enterococcus faecalis (GC 4554) (Enterococcus sp.; [7]): >0.5 µg/mL
MIC Enterococcus faecalis (GC 6189) (Enterococcus sp.; [8]): >0.5 µg/mL
MIC Enterococcus faecium (GC 2243) (Enterococcus sp.; Enterococcus faecium (GC 2243)): >64 µg/mL
MIC Enterococcus faecium (GC 4556) (Enterococcus sp.; Enterococcus faecium (GC 4556)): >64 µg/mL
MIC Enterococcus faecium (GC 4557) (Enterococcus sp.; Enterococcus faecium (GC 4557)): 32 µg/mL
MIC Enterococcus faecalis (ATCC 29212) (Enterococcus sp.; broth dilution, 18 hours at 35° C., strain ATCC 29212): >0.5 µg/mL
MIC Enterococcus faecalis (GC 2242) (Enterococcus sp.; broth dilution, 18 hours at 35° C., strain GC 2242): >0.5 µg/mL
MIC Enterococcus faecium (GC 2243) (Enterococcus sp.; broth dilution, 18 hours at 35° C., strain GC 2243): >64 µg/mL
MIC Enterococcus faecalis (GC 2691) (Enterococcus sp.; broth dilution, 18 hours at 35° C., strain GC 2691): >0.5 µg/mL
MIC Enterococcus faecalis (GC 3059) (Enterococcus sp.; broth dilution, 18 hours at 35° C., strain GC 3059): >0.5 µg/mL
MIC Enterococcus faecalis (GC 4552) (Enterococcus sp.; broth dilution, 18 hours at 35° C., strain GC 4552): >0.5 µg/mL
MIC Enterococcus faecalis (GC 4553) (Enterococcus sp.; broth dilution, 18 hours at 35° C., strain GC 4553): >0.5 µg/mL
MIC Enterococcus faecalis (GC 4554) (Enterococcus sp.; broth dilution, 18 hours at 35° C., strain GC 4554): >0.5 µg/mL
MIC Enterococcus faecium (GC 4556) (Enterococcus sp.; broth dilution, 18 hours at 35° C., strain GC 4556): >64 µg/mL
MIC Enterococcus faecium (GC 4557) (Enterococcus sp.; broth dilution, 18 hours at 35° C., strain GC 4557): 32 µg/mL
MIC Enterococcus avium (GC 4558) (Enterococcus sp.; broth dilution, 18 hours at 35° C., strain GC 4558): >0.5 µg/mL
MIC Enterococcus faecalis (GC 6189) (Enterococcus sp.; broth dilution, 18 hours at 35° C., strain GC 6189): >0.5 µg/mL
MIC Coagulase Negative Staphylococcus (GC 4547) (Staphylococcus sp.): 64 µg/mL
MIC Coagulase Negative Staphylococcus (GC 4548) (Staphylococcus sp.): >64 µg/mL
MIC Coagulase Negative Staphylococcus (GC 4549) (Staphylococcus sp.): 64 µg/mL
MIC Coagulase Negative Staphylococcus (GC 4551) (Staphylococcus sp.): >64 µg/mL
MIC Coagulase Negative Staphylococcus (GC 6257) (Staphylococcus sp.): 64 µg/mL
MIC Staphylococcus aureus (ATCC 29213) (Staphylococcus sp.; [9]): >0.5 µg/mL
MIC Staphylococcus aureus (GC 1131) (Staphylococcus sp.; [10]): >0.5 µg/mL
MIC Staphylococcus aureus (GC 3051) (Staphylococcus sp.; [11]): 0.5 µg/mL
MIC Staphylococcus aureus (GC 3053) (Staphylococcus sp.; [12]): 0.5 µg/mL
MIC Staphylococcus aureus (GC 4541) (Staphylococcus sp.; [13]): >0.5 µg/mL
MIC Staphylococcus aureus (GC 4542) (Staphylococcus sp.; [14]): >0.5 µg/mL
MIC Staphylococcus aureus (GC 4544) (Staphylococcus sp.; [15]): >0.5 µg/mL
MIC Staphylococcus aureus (GC 4545) (Staphylococcus sp.; [16]): >0.5 µg/mL
MIC Staphylococcus aureus-SMITH (GC 4543) (Staphylococcus sp.): >0.5 µg/mL
MIC Staphylococcus haemolyticus (GC 4546) (Staphylococcus sp.): 64 µg/mL
MIC Staphylococcus aureus (ATCC 29213) (Staphylococcus sp.; broth dilution, strain ATCC 29213): >0.5 µg/mL
MIC Staphylococcus aureus (GC 1131) (Staphylococcus sp.; broth dilution, strain GC 1131): >0.5 µg/mL
MIC Staphylococcus aureus (GC 3051) (Staphylococcus sp.; broth dilution, strain GC 3051): 0.5 µg/mL
MIC Staphylococcus aureus (GC 3053) (Staphylococcus sp.; broth dilution, strain GC 3053): 0.5 µg/mL
MIC Staphylococcus aureus (GC 4541) (Staphylococcus sp.; broth dilution, strain GC 4541): >0.5 µg/mL
MIC Staphylococcus aureus (GC 4542) (Staphylococcus sp.; broth dilution, strain GC 4542): >0.5 µg/mL
MIC Staphylococcus aureus (GC 4544) (Staphylococcus sp.; broth dilution, strain GC 4544): >0.5 µg/mL
MIC Staphylococcus aureus (GC 4545) (Staphylococcus sp.; broth dilution, strain GC 4545): >0.5 µg/mL
MIC Streptococcus agalactiae (GC 4564) (Streptococcus sp.; Streptococcus agalactiae (GC 4564)): 64 µg/mL
MIC Streptococcus pneumoniae (GC 4565) (Streptococcus sp.; Streptococcus pneumoniae (GC 4565)): 32 µg/mL
MIC Streptococcus pyogenes (GC 4563) (Streptococcus sp.; Streptococcus pyogenes (GC 4563)): 32 µg/mL
MIC Streptococcus pyogenes (GC 4563) (Streptococcus sp.; broth dilution, strain GC 4563): 32 µg/mL
MIC Streptococcus agalactiae (GC 4564) (Streptococcus sp.; broth dilution, strain GC 4564): 64 µg/mL
MIC Streptococcus pneumoniae (GC 4565) (Streptococcus sp.; broth dilution, strain GC 4565): 32 µg/mL
MIC Escherichia coli (GC 4559) (Escherichia coli [4]): >0.5 µg/mL
MIC Escherichia coli (GC 4560) (Escherichia coli [4]): 0.5 µg/mL
